Data: patent US20260232673A1, “ISOINDOLINONE GLUTARIMIDE AND PHENYL GLUTARIMIDE ANALOGS AS DEGRADERS OF RET KINASE” (Bristol-Myers Squibb Company, priority 2023, published 2026)

Target: T1, CCDC6-RET fusion (Homo sapiens, UniProt P07949+Q16204+Q96SW2)
T1 construct: CCDC6 (N-terminal fusion partner from the natural gene rearrangement, Q16204); endogenous in cells; host or cells: TPC-1 (parental) papillary thyroid carcinoma cells
Assay: Cellular RET degradation assay (AlphaLISA Surefire Ultra, TPC-1 cells)
Type: cell-based
Settings: half-maximal degradation concentration (DC50); parental TPC-1/CCDC6-RET cell line; 24 hrs compound treatment; AlphaLISA luminescence; read-out: Cell Density TPC-1/CCDC6-RET IC50
Description: Cellular RET degradation compound potency was determined using the bead-based luminescent amplification assay—AlphaLISA Surefire Ultra Detection Kit (Perkin-Elmer). The CCDC6-RET fusion expressing papillary thyroid carcinoma (TPC-1) cell line was selected for screening of potential degraders: Parental (TPC-1/CCDC6-RET). Cells were plated in 384 well culture plates (Greiner Bio-One) at 10,000 cells/well in 50 ul/well DMEM (Fisher Scientific) with 2% FBS serum (Gibco). […] Low normalization wells were media only and high normalization wells were cells treated with DMSO only. Treated cell plates were placed in an incubator at 37C and 5% CO2 for 24 hrs. At 24 hrs, cell media was removed by a FELIX automated liquid hander (Analytik Jena) and 25 ul of cell lysis buffer (provided in AlphaLisa kit) was added to each well. 5 ul cell lysate were transferred into a 384-well microplate (Perkin Elmer) before addition of 2.5 ul AlphaLISA Acceptor Bead mix. The plates were sealed and kept at room temperature for 1 hr before addition of donor bead mixture. Donor bead addition was performed in the dark and incubated for >1 hr before AlphaLISA luminescence was measured on an Envision plate reader with an Alphascreen aperture at RT (excitation 680 nm, emission 615 nm). RET protein abundance (and therefore degradation) directly corresponds to luminescence intensity.
Intensities were normalized relative to the average values from 16 wells containing media alone (blank-low) and 16 wells containing cells+DMSO (high). % Degradation for each well was determined using the standard equation, where
DC50 (IC50) values for each compound tested are calculated by analyzing plots of % degradation versus compound concentration, and fitting to the standard 4-parameter logistic curve where,
Top and bottom are the % degradation at infinitely large and infinitely small compound concentrations, respectively, while Halfmax is the compound concentration yielding % degradation corresponding to ½ Top-Bottom, and N is the Hill coefficient. DC50 values are calculated according to the relationship,
Compound replicates were performed in independent assays. Maximum degradation (YMax) was defined as the maximal % degradation value from the 4-parameter logistic equation, as previously described.

T1 sequence (Q16204+P07949 fused): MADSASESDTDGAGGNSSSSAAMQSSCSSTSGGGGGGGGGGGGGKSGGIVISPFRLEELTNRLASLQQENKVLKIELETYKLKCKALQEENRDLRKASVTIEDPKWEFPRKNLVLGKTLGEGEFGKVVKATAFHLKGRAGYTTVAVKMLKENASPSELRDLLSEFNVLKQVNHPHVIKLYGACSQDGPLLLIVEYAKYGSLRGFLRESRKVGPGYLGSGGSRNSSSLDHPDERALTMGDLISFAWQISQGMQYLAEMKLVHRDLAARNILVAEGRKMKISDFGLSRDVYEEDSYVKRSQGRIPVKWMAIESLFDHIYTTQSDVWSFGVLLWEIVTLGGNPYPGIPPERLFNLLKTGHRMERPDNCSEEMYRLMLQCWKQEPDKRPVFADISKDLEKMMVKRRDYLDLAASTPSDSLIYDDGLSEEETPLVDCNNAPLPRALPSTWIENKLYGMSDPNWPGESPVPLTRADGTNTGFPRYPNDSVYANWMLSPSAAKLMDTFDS
T1 sequence (Q96SW2 whole entry, the tested form may be a part): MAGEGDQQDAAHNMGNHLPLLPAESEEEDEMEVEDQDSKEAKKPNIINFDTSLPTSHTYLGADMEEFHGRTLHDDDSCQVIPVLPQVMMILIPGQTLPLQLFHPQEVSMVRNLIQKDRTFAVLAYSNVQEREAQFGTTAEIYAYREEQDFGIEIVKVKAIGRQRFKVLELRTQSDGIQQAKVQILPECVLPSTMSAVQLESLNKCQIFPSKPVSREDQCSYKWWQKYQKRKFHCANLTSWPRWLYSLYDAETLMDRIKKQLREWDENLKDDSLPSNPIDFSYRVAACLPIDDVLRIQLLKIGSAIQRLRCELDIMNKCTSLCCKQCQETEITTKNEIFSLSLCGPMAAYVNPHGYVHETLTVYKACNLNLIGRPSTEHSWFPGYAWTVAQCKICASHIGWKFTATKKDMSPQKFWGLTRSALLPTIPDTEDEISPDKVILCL

Compound | DC50
COC1(C(=O)N[C@@H](CCCNC(=O)CCCCCCN2CCN(c3ccc4c(c3)CN(C3CCC(=O)NC3=O)C4=O)CC2)c2ccc(-n3cc(F)cn3)nc2)CCN(c2nc(C)cc(Nc3cc(C)[nH]n3)n2)CC1 (stereo partly drawn) [Example A34, 7-{4-[2-(2,6-dioxopiperidin-3-yl)-1-oxo-2,3-dihydro-1H-isoindol-5-yl]piperazin-1-yl}-N-[(4S)-4-[6-(4-fluoro-1H-pyrazol-1-yl)pyridin-3-yl]-4-[(4-methoxy-1-{4-methyl-6-[(5-methyl-1H-pyrazol-3-yl)amino]pyrimidin-2-yl}piperidin-4-yl)formamido]butyl] heptanamide] | 13.2 nM
CC(C)n1nc(-c2noc(C3CC3)c2-c2cn(C3CCN(C(=O)CCCCCCN4CCN(c5ccc6c(c5)CN(C5CCC(=O)NC5=O)C6=O)CC4)CC3)cn2)c2c(N)ncnc21 (stereo not drawn) [Example A12, 3-[5-(4-{7-[4-(4-{3-[4-amino-1-(propan-2-yl)-1H-pyrazolo[3,4-d]pyrimidin-3-yl]-5-cyclopropyl-1,2-oxazol-4-yl}-1H-imidazol-1-yl)piperidin-1-yl]-7-oxoheptyl}piperazin-1-yl)-1-oxo-2,3-dihydro-1H-isoindol-2-yl]piperidine-2,6-dione] | 1.77 nM
CC(C)n1nc(-c2noc(C3CC3)c2-c2cn(C3CCN(C(=O)CCCCN4CCC(c5ccc6c(c5)C(=O)N(C5CCC(=O)NC5=O)C6)CC4)CC3)cn2)c2c(N)ncnc21 (stereo not drawn) [Example A17, 3-[6-(1-{5-[4-(4-{3-[4-amino-1-(propan-2-yl)-1H-pyrazolo[3,4-d]pyrimidin-3-yl]-5-cyclopropyl-1,2-oxazol-4-yl}-1H-imidazol-1-yl)piperidin-1-yl]-5-oxopentyl}piperidin-4-yl)-1-oxo-2,3-dihydro-1H-isoindol-2-yl]piperidine-2,6-dione] | 43.2 nM
Nc1ncnc2c1c(-c1noc(C3CC3)c1-c1ccccn1)nn2[C@H]1C[C@H](C(=O)NCCCCN2CCN(c3ccc4c(c3)CN(C3CCC(=O)NC3=O)C4=O)CC2)C1 (stereo partly drawn) [Example A2, (1r,3r)-3-{4-amino-3-[5-cyclopropyl-4-(pyridin-2-yl)-1,2-oxazol-3-yl]-1H-pyrazolo[3,4-d]pyrimidin-1-yl}-N-(4-{4-[2-(2,6-dioxopiperidin-3-yl)-1-oxo-2,3-dihydro-1H-isoindol-5-yl]piperazin-1-yl}butyl)cyclobutane-1-carboxamide] | 3.17 nM
Nc1ncnc2c1c(-c1noc(C3CC3)c1-c1ccccn1)nn2[C@H]1C[C@H](C(=O)NCCCCN2CCC(c3ccc4c(c3)CN(C3CCC(=O)NC3=O)C4=O)CC2)C1 (stereo partly drawn) [Example A4, (1r,3r)-3-{4-amino-3-[5-cyclopropyl-4-(pyridin-2-yl)-1,2-oxazol-3-yl]-1H-pyrazolo[3,4-d]pyrimidin-1-yl}-N-(4-{4-[2-(2,6-dioxopiperidin-3-yl)-1-oxo-2,3-dihydro-1H-isoindol-5-yl]piperidin-1-yl}butyl) cyclobutane-1-carboxamide] | 6.51 nM
CC(C)n1nc(-c2noc(C3CC3)c2C2CCN(C(=O)CCCCCCN3CCN(c4ccc5c(c4)C(=O)N(C4CCC(=O)NC4=O)C5)CC3)CC2)c2c(N)ncnc21 (stereo not drawn) [Example A19, 3-(6-{4-[7-(4-{3-[4-amino-1-(propan-2-yl)-1H-pyrazolo[3,4-d]pyrimidin-3-yl]-5-cyclopropyl-1,2-oxazol-4-yl}piperidin-1-yl)-7-oxoheptyl]piperazin-1-yl}-1-oxo-2,3-dihydro-1H-isoindol-2-yl)piperidine-2,6-dione] | 27.8 nM
COC1(C(=O)N[C@@H](CCCNC(=O)CCCCCCCCNc2cccc(C3CCC(=O)NC3=O)c2)c2ccc(-n3cc(F)cn3)nc2)CCN(c2nc(C)cc(Nc3cc(C)[nH]n3)n2)CC1 (stereo partly drawn) [Example A29] | 4.88 nM

Further lines, results first:

DC50 | Compound
10.2 nM | Nc1ncnc2c1c(-c1noc(C3CC3)c1-c1ccccn1)nn2[C@H]1C[C@H](C(=O)NCCN2CCC(c3ccc4c(c3)CN(C3CCC(=O)NC3=O)C4=O)CC2)C1 (stereo partly drawn) [Example A3, (1r,3r)-3-{4-amino-3-[5-cyclopropyl-4-(pyridin-2-yl)-1,2-oxazol-3-yl]-1H-pyrazolo[3,4-d]pyrimidin-1-yl}-N-(2-{4-[2-(2,6-dioxopiperidin-3-yl)-1-oxo-2,3-dihydro-1H-isoindol-5-yl]piperidin-1-yl}ethyl)cyclobutane-1-carboxamide]
2.02 nM | CC(C)n1nc(-c2noc(C3CC3)c2-c2cn(C3CCN(C(=O)CCCCCCN4CCC(c5ccc6c(c5)CN(C5CCC(=O)NC5=O)C6=O)CC4)CC3)cn2)c2c(N)ncnc21 (stereo not drawn) [Example A14, 3-[5-(1-{7-[4-(4-{3-[4-amino-1-(propan-2-yl)-1H-pyrazolo[3,4-d]pyrimidin-3-yl]-5-cyclopropyl-1,2-oxazol-4-yl}-1H-imidazol-1-yl)piperidin-1-yl]-7-oxoheptyl}piperidin-4-yl)-1-oxo-2,3-dihydro-1H-isoindol-2-yl]piperidine-2,6-dionc]
57.6 nM | Nc1ncnc2c1c(-c1noc(C3CC3)c1-c1ccccn1)nn2[C@H]1C[C@H](C(=O)NCCCCNc2ccc(C3CCC(=O)NC3=O)cc2)C1 (stereo partly drawn) [Example A11, (1r,3r)-3-{4-amino-3-[5-cyclopropyl-4-(pyridin-2-yl)-1,2-oxazol-3-yl]-1H-pyrazolo[3,4-d]pyrimidin-1-yl}-N-(4-{[4-(2,6-dioxopiperidin-3-yl)phenyl]amino}butyl) cyclobutane-1-carboxamide]
22 nM | Nc1ncnc2c1c(-c1noc(C3CC3)c1-c1ccccn1)nn2[C@H]1C[C@H](C(=O)NCCCCCCN2CCC(c3ccc4c(c3)C(=O)N(C3CCC(=O)NC3=O)C4)CC2)C1 (stereo partly drawn) [Example A9, (1r,3r)-3-{4-amino-3-[5-cyclopropyl-4-(pyridin-2-yl)-1,2-oxazol-3-yl]-1H-pyrazolo[3,4-d]pyrimidin-1-yl}-N-(6-{4-[2-(2,6-dioxopiperidin-3-yl)-3-oxo-2,3-dihydro-1H-isoindol-5-yl]piperidin-1-yl}hexyl)cyclobutane-1-carboxamide]
17.4 nM | Nc1ncnc2c1c(-c1noc(C3CC3)c1-c1ccccn1)nn2[C@H]1C[C@H](C(=O)NCCCCN2CCC(c3ccc4c(c3)C(=O)N(C3CCC(=O)NC3=O)C4)CC2)C1 (stereo partly drawn) [Example A8, (1r,3r)-3-{4-amino-3-[5-cyclopropyl-4-(pyridin-2-yl)-1,2-oxazol-3-yl]-1H-pyrazolo[3,4-d]pyrimidin-1-yl}-N-(4-{4-[2-(2,6-dioxopiperidin-3-yl)-3-oxo-2,3-dihydro-1H-isoindol-5-yl]piperidin-1-yl}butyl)cyclobutane-1-carboxamide]
9.27 nM | Nc1ncnc2c1c(-c1noc(C3CC3)c1-c1ccccn1)nn2[C@H]1C[C@H](C(=O)NCCCCCCN2CCC(c3ccc4c(c3)CN(C3CCC(=O)NC3=O)C4=O)CC2)C1 (stereo partly drawn) [Example A5, (1r,3r)-3-{4-amino-3-[5-cyclopropyl-4-(pyridin-2-yl)-1,2-oxazol-3-yl]-1H-pyrazolo[3,4-d]pyrimidin-1-yl}-N-(6-{4-[2-(2,6-dioxopiperidin-3-yl)-1-oxo-2,3-dihydro-1H-isoindol-5-yl]piperidin-1-yl}hexyl)cyclobutane-1-carboxamide]
6.42 nM | Nc1ncnc2c1c(-c1noc(C3CC3)c1-c1ccccn1)nn2[C@H]1C[C@H](C(=O)NCCCCN2CCN(c3ccc4c(c3)C(=O)N(C3CCC(=O)NC3=O)C4)CC2)C1 (stereo partly drawn) [Example A6, (1r,3r)-3-{4-amino-3-[5-cyclopropyl-4-(pyridin-2-yl)-1,2-oxazol-3-yl]-1H-pyrazolo[3,4-d]pyrimidin-1-yl}-N-(4-{4-[2-(2,6-dioxopiperidin-3-yl)-3-oxo-2,3-dihydro-1H-isoindol-5-yl]piperazin-1-yl}butyl) cyclobutane-1-carboxamide]
5.32 nM | Nc1ncnc2c1c(-c1noc(C3CC3)c1-c1ccccn1)nn2[C@H]1C[C@H](C(=O)NCCCCCCN2CCN(c3ccc4c(c3)C(=O)N(C3CCC(=O)NC3=O)C4)CC2)C1 (stereo partly drawn) [Example A7, (1r,3r)-3-{4-amino-3-[5-cyclopropyl-4-(pyridin-2-yl)-1,2-oxazol-3-yl]-1H-pyrazolo[3,4-d]pyrimidin-1-yl}-N-(6-{4-[2-(2,6-dioxopiperidin-3-yl)-3-oxo-2,3-dihydro-1H-isoindol-5-yl]piperazin-1-yl}hexyl) cyclobutane-1-carboxamide]
